Key:
[1] = target: T1, Transient receptor potential cation channel subfamily V member 1 (Homo sapiens, UniProt Q8NER1); assay: Antagonist activity at human TRPV1 expressed in CHO cells assessed as inhibition of capsaicin-induced (45)Ca2+ uptake after 5 mins by liquid scintillation counting analysis; type: cell-based
[2] = target: T1, Transient receptor potential cation channel subfamily V member 1; assay: Agonist activity at human TRPV1 expressed in CHO cells assessed as (45)Ca2+ uptake after 5 mins by liquid scintillation counting analysis; type: cell-based
[3] = target: T1, Transient receptor potential cation channel subfamily V member 1; assay: Displacement of [3H]RTX from human TRPV1 expressed in CHO cells after 60 mins by scintillation counting analysis; type: cell-based
Mus musculus = assay: Analgesic activity in ip dosed formalin-induced mouse pain model after 20 to 30 mins; type: functional

T1 sequence (Q8NER1 whole entry): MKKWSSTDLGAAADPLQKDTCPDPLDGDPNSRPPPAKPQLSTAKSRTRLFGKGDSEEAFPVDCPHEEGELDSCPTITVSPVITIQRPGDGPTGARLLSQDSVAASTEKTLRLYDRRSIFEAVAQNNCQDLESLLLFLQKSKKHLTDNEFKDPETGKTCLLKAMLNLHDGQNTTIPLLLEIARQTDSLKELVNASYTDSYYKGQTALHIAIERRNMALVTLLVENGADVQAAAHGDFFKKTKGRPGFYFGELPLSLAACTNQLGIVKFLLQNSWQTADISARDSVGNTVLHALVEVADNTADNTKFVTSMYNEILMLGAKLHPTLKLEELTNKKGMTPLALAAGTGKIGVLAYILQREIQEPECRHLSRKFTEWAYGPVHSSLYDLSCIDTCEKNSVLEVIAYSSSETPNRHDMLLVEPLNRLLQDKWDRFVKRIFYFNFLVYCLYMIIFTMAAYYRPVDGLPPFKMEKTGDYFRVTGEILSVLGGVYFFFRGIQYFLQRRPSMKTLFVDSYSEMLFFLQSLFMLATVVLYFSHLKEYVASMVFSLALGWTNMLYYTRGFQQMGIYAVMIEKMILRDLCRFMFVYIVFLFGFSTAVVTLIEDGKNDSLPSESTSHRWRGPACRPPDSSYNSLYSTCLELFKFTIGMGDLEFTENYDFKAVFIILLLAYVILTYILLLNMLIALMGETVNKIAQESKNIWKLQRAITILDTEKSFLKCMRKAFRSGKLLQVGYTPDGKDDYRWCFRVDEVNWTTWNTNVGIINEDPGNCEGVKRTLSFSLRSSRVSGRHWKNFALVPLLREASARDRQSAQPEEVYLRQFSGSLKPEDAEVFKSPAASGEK

SMILES	Ki ([1]; read-out: Ki) [nM]	EC50 [2]	Ki ([3]; read-out: Ki) [nM]	Ki ([1]; cho)	Ki ([3]; cho)	Activity (Mus musculus)	ED50 (Mus musculus) [mg/kg]
CC(C(=O)NCc1ccc(C(F)(F)F)nc1N(Cc1ccccc1)S(=O)(=O)c1ccc(Cl)cc1)c1ccc(NS(C)(=O)=O)c(F)c1 (configuration not stated)	8.5	Not Active	0.76	–	–	–	–
CC(C(=O)NCc1ccc(C(F)(F)F)nc1N(Cc1ccc(F)cc1)S(=O)(=O)c1ccc(F)cc1)c1ccc(NS(C)(=O)=O)c(F)c1 (configuration not stated)	2.99	Not Active	0.71	–	–	–	–
CC(C(=O)NCc1ccc(C(F)(F)F)nc1N(CC1CCCCC1)S(=O)(=O)c1ccccc1)c1ccc(NS(C)(=O)=O)c(F)c1 (configuration not stated)	10	Not Active	2.3	–	–	–	–
C[C@H](C(=O)NCc1ccc(C(F)(F)F)nc1N(Cc1ccccc1)S(=O)(=O)c1ccccc1)c1ccc(NS(C)(=O)=O)c(F)c1	1.81	Not Active	0.54	–	–	–	–
CC1CCN(c2nc(C(F)(F)F)ccc2CNC(=O)[C@@H](C)c2ccc(NS(C)(=O)=O)c(F)c2)CC1	1.26	Not Active	2.95	–	–	–	–
CC(C(=O)NCc1ccc(C(F)(F)F)nc1NS(=O)(=O)c1ccccc1)c1ccc(NS(C)(=O)=O)c(F)c1 (configuration not stated)	–	Not Active	–	Active	Active	–	–
CC(C(=O)NCc1ccc(C(F)(F)F)nc1N(C)S(=O)(=O)c1ccccc1)c1ccc(NS(C)(=O)=O)c(F)c1 (configuration not stated)	100	Not Active	698	–	–	–	–
Cc1ccc(CN(c2nc(C(F)(F)F)ccc2CNC(=O)C(C)c2ccc(NS(C)(=O)=O)c(F)c2)S(=O)(=O)c2ccc(F)cc2)cc1 (configuration not stated)	7.08	Not Active	3.28	–	–	–	–
CC(C(=O)NCc1ccc(C(F)(F)F)nc1N(C(C)C)S(=O)(=O)c1ccccc1)c1ccc(NS(C)(=O)=O)c(F)c1 (configuration not stated)	27.6	Not Active	410	–	–	–	–
COc1ccc(CN(c2nc(C(F)(F)F)ccc2CNC(=O)C(C)c2ccc(NS(C)(=O)=O)c(F)c2)S(=O)(=O)c2ccccc2)cc1 (configuration not stated)	2.14	Not Active	7.5	–	–	–	–
CC(C(=O)NCc1ccc(C(F)(F)F)nc1N(Cc1ccccc1)S(=O)(=O)c1ccc(F)cc1)c1ccc(NS(C)(=O)=O)c(F)c1 (configuration not stated)	3.87	Not Active	1.56	–	–	–	–
CC(C(=O)NCc1ccc(C(F)(F)F)nc1N(Cc1ccc(F)cc1)S(=O)(=O)c1ccccc1)c1ccc(NS(C)(=O)=O)c(F)c1 (configuration not stated)	7.37	Not Active	2.32	–	–	–	–
CC(C(=O)NCc1ccc(C(F)(F)F)nc1N(Cc1ccccc1)S(=O)(=O)C(C)C)c1ccc(NS(C)(=O)=O)c(F)c1 (configuration not stated)	6.19	Not Active	18.1	–	–	–	–
CCCS(=O)(=O)N(Cc1ccccc1)c1nc(C(F)(F)F)ccc1CNC(=O)C(C)c1ccc(NS(C)(=O)=O)c(F)c1 (configuration not stated)	–	Not Active	–	–	–	–	–
CC1CCN(c2nc(C(F)(F)F)ccc2CNC(=O)C(C)c2ccc(NS(C)(=O)=O)c(F)c2)CC1 (configuration not stated)	2.22	Not Active	7.9	–	–	–	–
CC(C(=O)NCc1ccc(C(F)(F)F)nc1N(Cc1ccc(Cl)cc1)S(=O)(=O)c1ccc(F)cc1)c1ccc(NS(C)(=O)=O)c(F)c1 (configuration not stated)	6	Not Active	0.9	–	–	–	–

Continued, in another order:

Ki ([1]; read-out: Ki) [nM]	EC50 [2]	Ki ([3]; read-out: Ki) [nM]	Ki ([1]; cho)	Ki ([3]; cho)	SMILES	Activity (Mus musculus)	ED50 (Mus musculus) [mg/kg]
11.9	Not Active	38	–	–	CCS(=O)(=O)N(Cc1ccccc1)c1nc(C(F)(F)F)ccc1CNC(=O)C(C)c1ccc(NS(C)(=O)=O)c(F)c1 (configuration not stated)	–	–
5.54	Not Active	1.85	–	–	Cc1ccc(CN(c2nc(C(F)(F)F)ccc2CNC(=O)C(C)c2ccc(NS(C)(=O)=O)c(F)c2)S(=O)(=O)c2ccccc2)cc1 (configuration not stated)	–	–
5.77	Not Active	1.29	–	–	CC(C(=O)NCc1ccc(C(F)(F)F)nc1N(Cc1ccc(Cl)cc1)S(=O)(=O)c1ccccc1)c1ccc(NS(C)(=O)=O)c(F)c1 (configuration not stated)	–	–
6	Not Active	18.3	–	–	CC(C(=O)NCc1ccc(C(F)(F)F)nc1N(c1ccccc1)S(=O)(=O)c1ccccc1)c1ccc(NS(C)(=O)=O)c(F)c1 (configuration not stated)	–	–
5.9	Not Active	1.99	–	–	CC(C(=O)NCc1ccc(C(F)(F)F)nc1N(Cc1ccccc1)S(=O)(=O)c1ccccc1)c1ccc(NS(C)(=O)=O)c(F)c1 (configuration not stated)	Dose-dependent effect	15.6
11.8	Not Active	7.3	–	–	CC(C(=O)NCc1ccc(C(F)(F)F)nc1N(c1ccc(F)cc1)S(=O)(=O)c1ccccc1)c1ccc(NS(C)(=O)=O)c(F)c1 (configuration not stated)	–	–
7.9	Not Active	1.65	–	–	COc1ccc(CN(c2nc(C(F)(F)F)ccc2CNC(=O)C(C)c2ccc(NS(C)(=O)=O)c(F)c2)S(=O)(=O)c2ccc(F)cc2)cc1 (configuration not stated)	–	–
25	Not Active	101	–	–	CC(C(=O)NCc1ccc(C(F)(F)F)nc1N(Cc1ccccc1)S(C)(=O)=O)c1ccc(NS(C)(=O)=O)c(F)c1 (configuration not stated)	–	–

Source: ChEMBL document CHEMBL3769312, “2-Sulfonamidopyridine C-region analogs of 2-(3-fluoro-4-methylsulfonamidophenyl)propanamides as potent TRPV1 antagonists” (Bioorg Med Chem, 2016)
